Data taken from US20070128270A1.
In brackets after ≈: the same amount, converted by molar mass.

How the values were obtained:
[1] = Accelerated stability of capsules, HPLC potency and impurities; format: physicochemical; settings: Initial
Description: The accelerated stability of the capsules of Examples 1 and 2 was studied. The capsules were packaged in HDPE bottles and stored at 40° C./75% RH and under ICH option 2 light condition. The samples were assayed by HPLC for potency and impurities and by dissolution apparatus. […] No change in dissolution was also observed under all conditions.

physchem = format: physicochemical
Description: In fact, according to a preferred embodiment, the at least one surfactant is a blend of surfactants, more preferably a blend of sodium lauryl sulfate and polysorbate 80 (Tween 80). In a particularly preferred embodiment, the pharmaceutically acceptable additives further comprise at least one solubilizer. Preferably the solubilizer is povidone.

## CNC(=O)c1c(-c2ccc(F)cc2)oc2cc(N(CCO)S(C)(=O)=O)c(C3CC3)cc12
[1]
  Impurity (%) RRT: 1.06: <0.05%
  Impurity (%) RRT: 1.45: 0.13%
  Impurity (%) RRT: 1.79: 0.05%
  Impurity (%) RRT: 1.84: 0.07%
  Strength (%): 99.2%
physchem
  solubility in aqueous medium at gastrointestinal pHs: insoluble
physchem; Solubility
  solubility: 20 µg/mL (≈ 44.8 µM)
